{"source": "patent US20250108070A1", "about": "“METHOD FOR REPROGRAMMING CD8+ T CELLS TO ENHANCE THEIR THERAPEUTIC POTENTIAL AND APPLICATIONS THEREOF” (INSTITUT PASTEUR, priority 2022, published 2025)", "key": {"[1]": {"tested_on": "GSK3", "details": "GSK3 inhibitor, review Front. Mol. Neurosci. 2011; cited from earlier work"}, "[2]": {"tested_on": "human CD8+ T cells", "experiment": "Screening of GSK3 inhibitors: markers and memory phenotypes by flow cytometry", "format": "cell-based", "description": "(§1) FIG. 12. Screening molecules for reprogramming human CD8^+ T cells Total CD8^+ T cells were purified and treated for 12 hs with titrated doses of GSK3 inhibitors or DMSO vehicle control. After drug washout, cells were stimulated for 48 hs with plate-bound anti-CD3/anti-CD28 antibodies (at 1 mg/mL), followed by flow cytometry analyses. A. Upon stimulation, intracellular cytokine and phospho-protein staining was performed, the latter for the detection of phospho-S6 and phospho-AKT proteins (indicative of activation of mTORC1 and mTORC2 pathways, respectively). The fold change in the frequency of IFN-γ^+TNF-α^+ and pS6^+pAKT^+ cells induced by the treatment with each GSK3 inhibitor, relative to DMSO control, was analyzed. […] B. Fold change in the expression of the indicated markers and memory phenotypes induced by anti-CD3/anti-CD28 antibody stimulation relative to unstimulated cells (at least 3 donors per condition). TCM: T central memory; TEM: T effector memory; TTM: T transitional memory; TTE: T terminal effector; TSCM: T stem cell memory.\n(§2) For reprogramming of CD8^+ T cells followed by polyclonal stimulation, cells were isolated by negative magnetic bead sorting (Stemcell Technologies). For reprogramming of CD8^+ T cells followed by antigen-specific stimulation, PBMC and magnetically separated CD8^+ T cells and non-CD8^+ T cells were used (REAlease® CD8 MicroBead Kit; Miltenyi Biotech). Then, CD8^+ T cells were treated with a GSK3 inhibitor (6-Bromoindirubin-3′-oxime; BIO; Sigma-Aldrich), at 3 μM, or an equivalent concentration of dimethyl sulfoxide (DMSO) vehicle control, in complete medium, for 12 hs at 37° C., 5% CO2. Non-CD8 cells were left resting during this time in complete medium. CD8^+ T cells were washed with complete medium and stimulated with the peptide pool in presence of non-CD8 T cells.\n(§3) In some experiments, cells were culture in RPMI medium without glucose (MP Biomedicals). CD8^+ T cell proliferation was evaluated by CFSE dilution (at 1 μM, Thermo Fisher Scientific). In additional experiments, reprogrammed CD8^+ T cells were stimulated with IL-7 or IL-15 (both at 10 ng/mL; R&D) and cultured for 6 days. In all the cases, cells were cultured at a density of 2×10^6 cells/mL.\n(§4) After cultures, cells were stained with the LIVE/DEAD Fixable Aqua Dead Cell Stain kit (Thermo Fisher Scientific), with anti-CD3 Alexa Fluor 700 or APC efluor 780 and anti-CD8 PE Texas Red antibodies, accordingly. […] In some experiments, cells were stained with APC-conjugated dextramers (Immudex), incubated for 15 minutes at room temperature. Additional surface staining panels included anti-HLA-DR Superbright 780, anti-CD38 Superbright 600, anti-PD-1 BV421, anti-LAG-3 APC efluor 780, anti-TIM3 PE Cy7, and anti-TIGIT BV786 antibodies, or anti-CD122 PE and anti-CD215 FITC antibodies. The BD Transcription Factor Buffer Set kit (BD Biosciences) was used for cell fixation and permeabilization. […] Cell acquisition was performed using LSR II or ARIA III flow cytometers (both from BD Biosciences), and data were analyzed with FlowJo v.10 software (BD Biosciences)."}, "[3]": {"tested_on": "human CD8+ T cells", "experiment": "Screening of GSK3 inhibitors: cytokine polyfunctionality (IFN-γ+TNF-α+) of CD8+ T cells after anti-CD3/anti-CD28 stimulation", "format": "cell-based", "details": "for Fold change in IFN-γ+ TNF-a+cells (relative to DMSO): 12 hs at optimal dose, washout, 48 hs anti-CD3/anti-CD28, symbols not defined; for IFN-γ+TNF-α+ cells (polyfunctionality) relative to vehicle control: FIG. 12A, in words", "description": "as §1, §2, §3, §4\n(§5) The inventors explored GSK3 inhibitors to expand the array of molecules that could be used for CD8^+ T cell reprogramming. They implemented a screening approach that combined the evaluation of cytokine polyfunctionality of CD8^+ T cells (IFN-γ+TNFα+) vs the activation of mTORC1 and mTORC2 pathways (pS6+pAKT+) upon treatment with the GSK3 inhibitors and subsequent polyclonal stimulation."}, "[4]": {"tested_on": "mTORC1 and mTORC2 pathways", "experiment": "Screening of GSK3 inhibitors: phospho-S6 / phospho-AKT staining (activation of mTORC1 and mTORC2 pathways)", "format": "cell-based, human", "details": "for frequency of pS6+pAKT+ cells / activation of mTORC pathway: FIG. 12A, in words; for Fold change in pS6+pAKT+cells (relative to DMSO): 12 hs at optimal dose, washout, 48 hs anti-CD3/anti-CD28, symbols not defined", "description": "as §1, §2, §3, §4, §5"}, "[5]": {"details": "12 hs at optimal dose, anti-CD3/anti-CD28 stimulation relative to unstimulated cells, symbols not defined"}}, "note": "Where a name gives a salt, the structure may show the parent alone. Read-outs that look alike come from different tables or passages of the source."}
{"smiles": "CN1CC[C@H](c2c(O)cc(O)c3c(=O)cc(-c4ccccc4Cl)oc23)[C@H](O)C1", "note": "[Flavopiridol hydrochloride hydrate]", "values": [{"measurement": "Fold change in % HLA+ CD38+", "setting": "[2]; [5]", "value": "− −"}, {"measurement": "Fold change in % Naive-TSCM", "setting": "[2]; [5]", "value": "− −"}, {"measurement": "Fold change in % TCM", "setting": "[2]; [5]", "value": "− −"}]}
{"smiles": "O[C@]12C=C(c3nccc4c3[nH]c3ccccc34)[C@@H]3CCN(CCCC/C=C\\CC1)C[C@@]31C[C@@H]3/C=C\\CCCCN3[C@H]12", "note": "[Manzamine A]", "values": [{"measurement": "IC50", "setting": "[1]", "value": 1500, "unit": "nM"}]}
{"smiles": "CC(=O)ON=C1C(=C2C(=O)Nc3cc(Br)ccc32)Nc2ccccc21", "note": "[Bio-acetoxime, 6-bromoindirubin-3′-acetoxime]", "values": [{"measurement": "CD127+ T-bet− phenotype", "setting": "[2]; FIG. 12B, in words", "value": "preserved"}, {"measurement": "acquisition of T-bet, HLA-DR and CD38, PD-1 and LAG-3", "setting": "[2]; FIG. 12B, in words", "value": "restrained"}, {"measurement": "phenotype / profile promoted in CD8+ T cells", "setting": "[2]; FIG. 12B, in words", "value": "promoted a less-differentiated phenotype"}, {"measurement": "Fold change in IFN-γ+ TNF-a+cells (relative to DMSO)", "setting": "[3]", "value": "+ +"}, {"measurement": "IFN-γ+TNF-α+ cells (polyfunctionality) relative to vehicle control", "setting": "[3]", "value": "promoted"}, {"measurement": "frequency of pS6+pAKT+ cells / activation of mTORC pathway", "setting": "[4]", "value": "lower frequency"}]}
{"smiles": "CN[C@@H]1C[C@H]2O[C@@](C)([C@@H]1OC)n1c3ccccc3c3c4c(c5c6ccccc6n2c5c31)C(=O)NC4", "note": "[Staurosporine]", "values": [{"measurement": "Fold change in % CD127+ T-bet−", "setting": "[2]", "value": "+"}, {"measurement": "Fold change in % HLA+ CD38+", "setting": "[2]", "value": "−"}, {"measurement": "Fold change in % LAG3+ PD1+", "setting": "[2]", "value": "−"}, {"measurement": "Fold change in % TTM", "setting": "[2]", "value": "+"}]}
{"smiles": "NC1=N[C@H]2c3c([nH]c(Br)c3Br)C(=O)N3CCC[C@]23N1", "note": "[Dibromocantharelline]", "values": [{"measurement": "IC50", "setting": "[1]", "value": 3000, "unit": "nM"}]}
{"smiles": "OCCCNc1cc(-c2ccnc(Nc3cccc(Cl)c3)n2)ccn1", "note": "[CGP 60474]", "values": [{"measurement": "Fold change in % HLA+ CD38+", "setting": "[2]; [5]", "value": "− −"}]}
{"smiles": "O=c1sn(-c2cccc3ccccc23)c(=O)n1Cc1ccccc1", "note": "[Tideglusib (NP031112)]", "values": [{"measurement": "frequencies of CD127− T-bet+ cells, and LAG-3+ PD-1+ cells", "setting": "[2]; FIG. 12B, in words", "value": "higher frequencies"}, {"measurement": "phenotype / profile promoted in CD8+ T cells", "setting": "[2]; FIG. 12B, in words", "value": "promoted an effector-like profile"}]}
{"smiles": "COc1ccc2c(c1)/C(=C/c1cnc[nH]1)C(=O)N2", "note": "[SU 9516]", "values": [{"measurement": "Fold change in % HLA+ CD38+", "setting": "[2]; [5]", "value": "+ +"}, {"measurement": "Fold change in IFN-γ+ TNF-a+cells (relative to DMSO)", "setting": "[3]", "value": "+ +"}, {"measurement": "IFN-γ+TNF-α+ cells (polyfunctionality) relative to vehicle control", "setting": "[3]", "value": "increased"}, {"measurement": "Fold change in pS6+pAKT+cells (relative to DMSO)", "setting": "[4]", "value": "+ +"}, {"measurement": "frequency of pS6+pAKT+ cells / activation of mTORC pathway", "setting": "[4]", "value": "activation of mTORC pathway"}]}
{"smiles": "CN1CCN(S(=O)(=O)c2ccc(-c3cnc(N)c(C(=O)Nc4cccnc4)n3)cc2)CC1", "note": "[AZD 2858]", "values": [{"measurement": "Fold change in IFN-γ+ TNF-a+cells (relative to DMSO)", "setting": "[3]", "value": "+ +"}, {"measurement": "Fold change in pS6+pAKT+cells (relative to DMSO)", "setting": "[4]", "value": "+ +"}]}
{"smiles": "[Zn+2]", "note": "[Zinc]", "values": [{"measurement": "IC50", "setting": "[1]", "value": 15000, "unit": "nM"}]}
{"smiles": "COc1ccc(-c2ocnc2C(=O)NCCCn2cncn2)cc1Cl", "note": "[PF-04802367]", "values": [{"measurement": "Fold change in IFN-γ+ TNF-a+cells (relative to DMSO)", "setting": "[3]", "value": "+ +"}, {"measurement": "IFN-γ+TNF-α+ cells (polyfunctionality) relative to vehicle control", "setting": "[3]", "value": "increased"}, {"measurement": "Fold change in pS6+pAKT+cells (relative to DMSO)", "setting": "[4]", "value": "+ +"}, {"measurement": "frequency of pS6+pAKT+ cells / activation of mTORC pathway", "setting": "[4]", "value": "activation of mTORC pathway"}]}
{"smiles": "O=C([O-])[O-].[Li+].[Li+]", "note": "[Lithium carbonate]", "values": [{"measurement": "Fold change in % HLA+ CD38+", "setting": "[2]; [5]", "value": "+ +"}]}
{"smiles": "O=C1Cc2c([nH]c3ccc([N+](=O)[O-])cc23)-c2ccccc2N1", "note": "[Alsterpaullone]", "values": [{"measurement": "Fold change in % HLA+ CD38+", "setting": "[2]; [5]", "value": "− −"}, {"measurement": "Fold change in IFN-γ+ TNF-a+cells (relative to DMSO)", "setting": "[3]", "value": "+ +"}, {"measurement": "IFN-γ+TNF-α+ cells (polyfunctionality) relative to vehicle control", "setting": "[3]", "value": "increased"}, {"measurement": "Fold change in pS6+pAKT+cells (relative to DMSO)", "setting": "[4]", "value": "+ +"}, {"measurement": "frequency of pS6+pAKT+ cells / activation of mTORC pathway", "setting": "[4]", "value": "activation of mTORC pathway"}]}
{"smiles": "CN(C)CCCn1cc(C2=C(c3c[nH]c4ccccc34)C(=O)NC2=O)c2ccccc21", "note": "[GF 109203X]", "values": [{"measurement": "Fold change in % HLA+ CD38+", "setting": "[2]; [5]", "value": "− −"}]}
{"smiles": "COc1ccc(CNC(=O)Nc2ncc([N+](=O)[O-])s2)cc1", "note": "[AR-A014418]", "values": [{"measurement": "frequency of pS6+pAKT+ cells / activation of mTORC pathway", "setting": "[4]", "value": "decreased"}]}
